Earlier results on two molecules are cited in patent US20080032891A1, “DEFOLIANT COMPOSITION AND METHOD” (ARYSTA L[…] AMERICA CORPORATION, priority 2006, published 2008).

Consider `O=C(Nc1ccccc1)Nc1cnns1` [Thidiazuron, 1-phenyl-3-(1,2,3-thiadiazol-5-yl)-urea], for which the solubility in water entry is on record as “insoluble in water”.
As for `CN(C)C(=O)Nc1ccc(Cl)c(Cl)c1` [diuron, 3-(3,4-dichlorophenyl)-1,1-dimethylurea], the solubility in water entry is recorded as “insoluble in water”.
